Source: patent US4330549A, “Coumarins connected via an oxyalkyl group with a piperidine ring having anti-allergic action” (Boehringer Mannheim GmbH, priority 1979, dated 1982)

What follows are compounds tested on passive cutaneous anaphylactic reaction (PCA) (assay: Inhibition of passive cutaneous anaphylaxis (PCA) in rats, reaginic antibody to egg albumin). Conditions: Rattus norvegicus, po; dose 3.0 mg/kg (table head: p.o.; method b438: intravenously immediately before the antigen); rats, 6 animals per dose.
Assay type: in vivo, rat
In the case of Cc1c(C)c2ccc(OCCCN3CCC(NC(=O)c4ccccc4)CC3)cc2oc1=O [Example 1, 7-[3-(4-Benzamido-piperidino)-propoxy]-3,4-dimethylcoumarin], the inhibition in vivo at 3 mg/kg is reported as 50%.
Cc1c(C)c2ccc(OCCCN3CCC(NC(=O)c4ccc(F)cc4)CC3)cc2oc1=O [Example 2a, 3,4-Dimethyl-7-{3-[4-(4-fluoro-benzamido)-piperidino]-propoxy}-coumarin] was tested, and the inhibition in vivo at 3 mg/kg was 59%.
For COc1ccc(C(=O)NC2CCN(CCCOc3ccc4c(C)c(C)c(=O)oc4c3)CC2)cc1 [Example 2b, 3,4-Dimethyl-7-{3-[4-(4-methoxy-benzamido)-piperidino]-propoxy}-coumarin], the inhibition in vivo at 3 mg/kg was 36%.
Cc1c(C)c2ccc(OCCCN3CCC(NC(=O)c4ccc(C(C)(C)C)cc4)CC3)cc2oc1=O [Example 2d, 7-{3-[4-(4-t.-Butyl-benzamido)-piperidino]-propoxy}-3,4-dimethyl-coumarin] gave an inhibition in vivo at 3 mg/kg of 52%.
With Cc1cc(=O)oc2ccc(OCCCN3CCC(NC(=O)c4ccccc4)CC3)cc12 [Example 4a, 6-[3-(4-Benzamido-piperidino)-propoxy]-4-methyl-coumarin] the inhibition in vivo at 3 mg/kg was 61%.
Cc1c(C)c2ccc(OCCCN3CCC(NC(=O)c4ccc(Cl)cc4)CC3)cc2oc1=O [Example 6, 7-{3-[4-(4-Chlorobenzamido)-piperidino]-propoxy}-3,4-dimethylcoumarin] gave an inhibition in vivo at 3 mg/kg of 30%.
With Cc1c(C)c2ccc(OCCCN3CCC(NC(=O)c4cccs4)CC3)cc2oc1=O [Example 7b] the inhibition in vivo at 3 mg/kg was 23%.
Compound Cc1cc(=O)[nH]c2ccc(OCCCN3CCC(NC(=O)c4ccccc4)CC3)cc12 [Example 8, 6-[3-(4-Benzamido-piperidino)-propoxy]-4-methyl-2-oxo-1,2-dihydroquinoline] has an inhibition in vivo at 3 mg/kg of 34%.
With Cc1cc(=O)n(C)c2ccc(OCCCN3CCC(NC(=O)c4ccccc4)CC3)cc12 [Example 10, 6-[3-(4-Benzamido-piperidino)-propoxy]-1,4-dimethyl-2-oxo-1,2-dihydroquinoline] the inhibition in vivo at 3 mg/kg was 54%.

Same assay, conditions: Rattus norvegicus, po; dose 100.0 mg/kg (table head: p.o.; method b438: intravenously immediately before the antigen); rats, 6 animals per dose; comparison compound
In the case of CCN(CC)C(=O)N1CCN(C)CC1 [Diethylcarbamazin, 1-diethylcarbamoyl-4-methylpiperazine, reference compound], the inhibition in vivo at 100 mg/kg is reported as 47%.

Same assay, conditions: relative to 7-[3-(4-benzamido-piperidino)-propoxy]-3,4-dimethylcoumarin (Example 1); PCA test in vivo in rats
In the case of CCN(CC)C(=O)N1CCN(C)CC1 [Diethylcarbamazin, 1-diethylcarbamoyl-4-methylpiperazine, reference compound], the “times more substance that must be used than of 7-[3-(4-benzamido-piperidino)-propoxy]-3,4-dimethylcoumarin for comparable inhibition of the passive cutaneous anaphylactoid reaction” value is reported as “about 40 times”.
